The text below walks through data of US9169224B2, “Piperazinyl and piperidinyl ureas as modulators of fatty acid amide hydrolase” (Janssen Pharmaceutica NV, priority 2004, dated 2015).

What all share (format): biochemical
The target of experiment [1] is T1, FAAH (Homo sapiens (Human), UniProt O00519). The experiment can be described thus: Assay Method 1: FAAH assay, T84 cell homogenate, 3H-anandamide hydrolysis. To be noted: 3H-AEA tracer 200 nM, 1 h at rt. An outline of the steps: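 Homogenate of human T84 cells in pH 9 Tris/EDTA buffer with 0.02% Triton X-100 was incubated with compound and 200 nM final 3H-anandamide for 1 h at rt. Released [3H]ethanolamine was separated from substrate through activated charcoal by centrifugation and quantified by scintillation counting.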

Experiment [2] addresses T1, FAAH. The experiment can be described thus: Assay Method 2: FAAH assay, cells transfected with human FAAH. To be noted: T84 or human FAAH-transfected SK-N-MC cell homogenate, 3H-AEA tracer 80 nM, 1 h at rt. As for the experimental part:
Assay Method 2 A. Transfection of Cells with Human FAAH
(§1) A 10-cm tissue culture dish with a confluent monolayer of SK-N-MC cells was split 2 days (d) prior to transfection. Using sterile technique, the media was removed and the cells were detached from the dish by the addition of trypsin. One fifth of the cells were then placed onto a new 10-cm dish. Cells were grown in a 37° C. incubator with 5% CO2 in Minimal Essential Media Eagle with 10% Fetal Bovine Serum. After 2 d, cells were approximately 80% confluent. These cells were removed from the dish with trypsin and pelleted in a clinical centrifuge. The pellet was re-suspended in 400 μL complete media and transferred to an electroporation cuvette with a 0.4 cm gap between the electrodes. Supercoiled human FAAH cDNA (1 pg) was added to the cells and mixed. The voltage for the electroporation was set at 0.25 kV, and the capacitance was set at 960 μF. After electroporation, the cells were diluted into complete media (10 mL) and plated onto four 10-cm dishes. Because of the variability in the efficiency of electroporation, four different concentrations of cells were plated. The ratios used were 1:20, 1:10, and 1:5, with the remainder of the cells being added to the fourth dish. The cells were allowed to recover for 24 h before adding the selection media (complete media with 600 μg/mL G418). After 10 d, dishes were analyzed for surviving colonies of cells. Dishes with well-isolated colonies were used. Cells from individual colonies were isolated and tested.
(§2) T84 frozen cell pellets or transfected SK-N-MC cells (contents of 1×15 cm culture dishes) were homogenized in 50 mL of FAAH assay buffer (125 mM Tris, 1 mM EDTA, 0.2% Glycerol, 0.02% Triton X-100, 0.4 mM Hepes, pH 9). The assay mixture consisted of 50 μL of the cell homogenate, 10 μL of the test compound, and 40 pt of anandamide [1-^3H-ethanolamine] (^3H-AEA, Perkin-Elmer, 10.3 Ci/mmol), which was added last, for a final tracer concentration of 80 nM. The reaction mixture was incubated at rt for 1 h. During the incubation, 96-well Multiscreen filter plates (catalog number MAFCNOB50; Millipore, Bedford, Mass., USA) were loaded with 25 μL of activated charcoal (Multiscreen column loader, catalog number MACL09625, Millipore) and washed once with 100 μL of MeOH. Also during the incubation, 96-well DYNEX MicroLite plates (catalog number NL510410) were loaded with 100 μL of MicroScint40 (catalog number 6013641, Packard Bioscience, Meriden, Conn., USA). After the 1 h incubation, 60 μL of the reaction mixture were transferred to the charcoal plates, which were then assembled on top of the DYNEX plates using Centrifuge Alignment Frames (catalog number MACF09604, Millipore). The unbound labeled ethanolamine was centrifuged through to the bottom plate (5 min at 2000 rpm), which was preloaded with the scintillant, as described above. The plates were sealed and left at rt for 1 h before counting on a Hewlett Packard TopCount.

For experiment [3], the target named is rat FAAH (Rattus norvegicus (Rat), UniProt P97612). The experiment can be described thus: Assay Method 3: FAAH assay, cells transfected with rat FAAH. To be noted: T84 or rat FAAH-transfected SK-N-MC cell homogenate, 3H-AEA tracer 80 nM, 1 h at rt. The method, then:
Assay Method 3 A. Transfection of Cells with Rat FAAH
as §1, with “rat” for “human”, “μg)” for “pg)”
as §2, with “μL” for “pt”

By IC50 is commonly meant the midpoint of a concentration-inhibition curve. Low values mean higher potency, high ones lower potency.

Sequence of rat FAAH (P97612 whole entry): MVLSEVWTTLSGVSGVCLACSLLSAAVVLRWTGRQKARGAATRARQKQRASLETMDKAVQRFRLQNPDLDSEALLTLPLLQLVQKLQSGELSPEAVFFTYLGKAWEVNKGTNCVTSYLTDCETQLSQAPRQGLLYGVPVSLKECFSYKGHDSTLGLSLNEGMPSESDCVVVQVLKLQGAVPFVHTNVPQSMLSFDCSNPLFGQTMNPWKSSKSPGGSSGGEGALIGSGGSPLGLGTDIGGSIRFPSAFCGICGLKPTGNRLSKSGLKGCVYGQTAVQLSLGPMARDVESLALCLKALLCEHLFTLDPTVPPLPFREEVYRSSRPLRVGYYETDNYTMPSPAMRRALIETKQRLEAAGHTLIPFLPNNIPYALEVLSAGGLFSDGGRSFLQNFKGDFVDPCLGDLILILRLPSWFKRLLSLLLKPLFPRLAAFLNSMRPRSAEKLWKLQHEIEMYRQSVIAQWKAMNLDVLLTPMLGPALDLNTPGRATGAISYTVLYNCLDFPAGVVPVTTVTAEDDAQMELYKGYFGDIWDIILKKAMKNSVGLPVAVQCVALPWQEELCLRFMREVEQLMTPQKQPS
T1 sequence (O00519 whole entry): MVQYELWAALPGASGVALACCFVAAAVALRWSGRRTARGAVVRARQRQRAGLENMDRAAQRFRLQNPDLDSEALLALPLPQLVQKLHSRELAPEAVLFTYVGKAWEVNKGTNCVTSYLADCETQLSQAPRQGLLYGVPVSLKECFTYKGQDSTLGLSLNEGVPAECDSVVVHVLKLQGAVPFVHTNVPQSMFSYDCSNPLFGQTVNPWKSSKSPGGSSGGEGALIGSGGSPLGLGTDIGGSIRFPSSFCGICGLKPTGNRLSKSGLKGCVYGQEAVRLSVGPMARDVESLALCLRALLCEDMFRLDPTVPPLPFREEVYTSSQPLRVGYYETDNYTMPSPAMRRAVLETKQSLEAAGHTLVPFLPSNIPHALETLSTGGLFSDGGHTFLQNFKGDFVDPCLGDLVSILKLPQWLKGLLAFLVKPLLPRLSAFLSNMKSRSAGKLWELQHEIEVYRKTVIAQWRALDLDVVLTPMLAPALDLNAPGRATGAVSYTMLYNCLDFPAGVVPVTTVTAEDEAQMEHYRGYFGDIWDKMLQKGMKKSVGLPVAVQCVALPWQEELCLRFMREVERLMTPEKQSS

Take `O=C(Nc1ccccc1)N1CCN(Cc2ccc3ccccc3c2)CC1` [Example 18, 4-Naphthalen-2-ylmethyl-piperazine-1-carboxylic acid phenylamide]: the IC50 in experiment [1] worked out at 17 nM; in experiment [2], 23 nM; in experiment [3] it was 265 nM.

For `O=C(Nc1ccccc1)N1CCN(Cc2ccc(Br)c(Br)c2)CC1` [Example 21, 4-(3,4-Dibromo-benzyl)-piperazine-1-carboxylic acid phenylamide], the IC50 was 31 nM in experiment [1], 19 nM in experiment [2] and 180 nM in experiment [3].

With `CC(C)c1ccc(CN2CCN(C(=O)Nc3ccccc3)CC2)cc1` [Example 32, 4-(4-Isopropyl-benzyl)-piperazine-1-carboxylic acid phenylamide], the IC50 in experiment [1] is 220 nM; in experiment [2] it was 380 nM; in experiment [3] it was 10000 nM.

As to `O=C(Nc1ccccc1)N1CCN(Cc2cc(Br)ccc2O)CC1` [Example 34, 4-(5-Bromo-2-hydroxy-benzyl)-piperazine-1-carboxylic acid phenylamide], the concentration for half-maximal inhibition (IC50) in experiment [1] came out at 290 nM; in experiment [2] it was 330 nM; in experiment [3], 410 nM.

Take `O=C(Nc1ccccc1)N1CCN(Cc2ccccc2O)CC1` [Example 41, 4-(2-Hydroxy-benzyl)-piperazine-1-carboxylic acid phenylamide]: the IC50 in experiment [1] was 1300 nM; in experiment [2], 3000 nM; in experiment [3], 10000 nM.

In the case of `O=C(Nc1ccccc1)N1CCN(Cc2ccc3c(c2)OC(F)(F)O3)CC1` [Example 52, 4-(2,2-Difluoro-benzo[1,3]dioxol-5-ylmethyl)-piperazine-1-carboxylic acid phenylamide], the figures for the IC50 in experiment [1], in experiment [2] and in experiment [3] were 87 nM, 100 nM and 290 nM, respectively.

For `O=C(Nc1ccccc1)N1CCN(Cc2ccc3ccccc3c2O)CC1` [Example 59, 4-(1-Hydroxy-naphthalen-2-ylmethyl)-piperazine-1-carboxylic acid phenylamide], the IC50 in experiment [1] turned out to be 21 nM; in experiment [2], 16 nM; in experiment [3] it was 50 nM.

As to `O=C(Nc1ccc(F)cc1)N1CCN(Cc2cnc3ccccc3c2)CC1` [Example 98, 4-Quinolin-3-ylmethyl-piperazine-1-carboxylic acid (4-fluoro-phenyl)-amide], the 50% inhibitory concentration (IC50) in experiment [1] was determined as 130 nM; in experiment [2], 220 nM; in experiment [3], 6500 nM.

For the compound `O=C(Nc1ccncc1)N1CCN(Cc2ccc3c(c2)OCO3)CC1` [Example 147, 4-Benzo[1,3]dioxol-5-ylmethyl-piperazine-1-carboxylic acid pyridin-4-ylamide], the IC50 in experiment [2] worked out at 3000 nM; in experiment [3], 10000 nM.

Turning to `O=C(Nc1ncccn1)N1CCN(Cc2ccc3c(c2)OCO3)CC1` [Example 148, 4-Benzo[1,3]dioxol-5-ylmethyl-piperazine-1-carboxylic acid pyrimidin-2-ylamide], the IC50 in experiment [2] was more than 10000 nM; in experiment [3], 10000 nM.

For `O=C(Nc1ccccn1)N1CCN(Cc2ccc3c(c2)OCO3)CC1` [Example 149, 4-Benzo[1,3]dioxol-5-ylmethyl-piperazine-1-carboxylic acid pyridin-2-ylamide], the figures for the IC50 in experiment [2] and in experiment [3] were 4000 nM and 10000 nM, respectively.

With `O=C(Nc1ccncc1)N1CCN(Cc2ccc3c(c2)OC(F)(F)O3)CC1` [Example 151, 4-(2,2-Difluoro-benzo[1,3]dioxol-5-ylmethyl)-piperazine-1-carboxylic acid pyridin-4-ylamide], the values for the IC50 in experiment [2] and in experiment [3] were 1700 nM and 2000 nM, respectively.

Regarding `O=C(Nc1ccncn1)N1CCN(Cc2cnc3ccccc3c2)CC1` [Example 152, 4-Quinolin-3-ylmethyl-piperazine-1-carboxylic acid pyrimidin-4-ylamide], the IC50 in experiment [2] was 4000 nM; in experiment [3], 10000 nM.

As for `O=C(Nc1ccncn1)N1CCN(Cc2ccc3c(c2)OC(F)(F)O3)CC1` [Example 153, 4-(2,2-Difluoro-benzo[1,3]dioxol-5-ylmethyl)-piperazine-1-carboxylic acid pyrimidin-4-ylamide], the IC50 in experiment [2] came to 1000 nM; in experiment [3] it was 60000 nM.

With `O=C(Nc1ccncn1)N1CCN(Cc2ccc(Br)c(Br)c2)CC1` [Example 154, 4-(3,4-Dibromo-benzyl)-piperazine-1-carboxylic acid pyrimidin-4-ylamide], the results for the IC50 in experiment [2] and in experiment [3] were 282 nM and 2000 nM, respectively.

Turning to `O=C(O)c1ccc(NC(=O)N2CCN(Cc3cnc4ccccc4c3)CC2)cc1` [Example 155, 4-[(4-Quinolin-3-ylmethyl-piperazine-1-carbonyl)-amino]-benzoic acid], the figures for the IC50 in experiment [2] and in experiment [3] were 8000 nM and 10000 nM, respectively.

Take `O=C(Nc1ccccc1)N1CCN(Cc2cnc3ccccc3n2)CC1` [Example 156, 4-Quinoxalin-2-ylmethyl-piperazine-1-carboxylic acid phenylamide]: the IC50 in experiment [2] was 840 nM; in experiment [3], 8000 nM.

On to `O=C(Nc1ccccc1)N1CCN(Cc2ccc(Cl)c(Cl)c2)CC1` [Example 157, 4-(3,4-Dichloro-benzyl)-piperazine-1-carboxylic acid phenylamide], for which the values for the half-inhibitory concentration (IC50) in experiment [2] and in experiment [3] were 65 nM and 350 nM, respectively.

For the compound `O=C(Nc1nccs1)N1CCN(Cc2cnc3ccccc3c2)CC1` [Example 158, 4-Quinolin-3-ylmethyl-piperazine-1-carboxylic acid thiazol-2-ylamide], the values for the IC50 in experiment [2] and in experiment [3] were more than 10000 nM and 10000 nM, respectively.

For the compound `CN(C(=O)N1CCN(Cc2ccc(Br)c(Br)c2)CC1)c1ccccc1` [Example 160, 4-(3,4-Dibromo-benzyl)-piperazine-1-carboxylic acid methyl-phenyl-amide], the 50% inhibitory concentration (IC50) was more than 10000 nM in experiment [2] and 10000 nM in experiment [3].
